Assay results reported in patent US20040126431A1, “Method for preparing microspheres containing a water-soluble substance” (priority 2000, published 2004).

Legend:
[1] = tested on: IGROV-1 xenografts (peritoneal ovarian adenocarcinoma of human origin); assay: Antitumor activity on IGROV-1 tumors after i.p. administration; format: in vivo, Nude mice; details: for Survival at D98: survivors/5 mice
Text: 10^7 viable IGROV-1 cells were inoculated i.p. into Nude mice. On day 15 after inoculation of tumor cells, the mice were given the substances tested by i.p. administration.
The control group was given only a solution of 5% glucose or empty microspheres. Each group was made up of 5 mice. Isoflurane was used to anesthetize the animals before implantation of the tumor or sacrifice of the animals.
(§1) The experiments were stopped when the size of the tumor reached 2 000 mm^3 or when the period after the final treatment exceeded 60 days. Mice carrying progressive tumors were sacrificed. The mice were weighed and examined twice a week, and the weight of the sick animals was compared with the weight of three healthy mice (no tumor, no treatment, of the same batches). The animals were monitored for 98 days.

[2] = tested on: PC-3 human prostate tumors (xenografts); assay: Antitumor activity on PC-3 human prostate tumors after i.t. administration; format: in vivo, Nude mice
Description: 10^7 PC-3 cells were inoculated on the flank of male Nude mice. The treatment began from a tumor size of 210-266 mm^3 (day 30).
The volume of the test substances administered to the PC-3 tumors was equivalent to the tumor volume (1 μl of treatment per 1 mm^3 of tumor).
as §1

SMILES: O=C1[O][Pt]2([NH][C@@H]3CCCC[C@H]3[NH]2)[O]C1=O [Oxaliplatin, oxaliplatin]
- T/C % (median survival time treated / untreated control x 100) ([1]; i.p., 6 mg/kg oxaliplatin administered 3 times every four days, treatment from day 15): 85.71%
- Survival at D98 ([1]; i.p., 6 mg/kg oxaliplatin administered 3 times every four days): 0/5
- antitumor activity (in words) ([1]; i.p., dose of 15 mg base/kg oxaliplatin): did not show any significant antitumor activity
- T/C % (median survival time treated / untreated control x 100) ([1]; single i.p. dose, 15 mg/kg oxaliplatin, day 15): 102.38%
- Survival at D98 ([1]; single i.p. dose, 15 mg/kg oxaliplatin): 1/5
- T/C % ([2]; i.v., 6 mg/kg oxaliplatin administered three times every four days): 80.41%
- T/C % ([2]; single i.t. injection, 30 mg/kg oxaliplatin, 30 mg/kg): 5.24%
- T/C % ([2]; single i.v. injection, 15 mg/kg oxaliplatin): 55.47%
